Patent US12617760B2, “[(5-phenyl-1-heteroaryl-1H-triazol-3-yl)oxy] acetic acid derivatives as safeners for the protection of useful plants and crop plants” (BAYER AKTIENGESELLSCHAFT, priority 2020, dated 2026)

Test system: summer barley (HORVS)
Assay: Reduction of damage by mesosulfuron-methyl on summer barley (safener greenhouse test, post-emergence)
Assay type: in vivo, summer barley (HORVS; cv. Montoya)
Design: key: 0: no reduction in damage (appearance corresponding to the herbicide control); 1: slight reduction in damage; 2: distinct reduction in damage; 3: significant reduction in damage; 4: complete reduction in damage (appearance corresponding to the untreated control)
Conditions: safener dose 500 g/ha, sprayed at BBCH10-12, followed by mesosulfuron-methyl 40-60 g/ha, visual assessment 9-13 days after application, 2 repeats
Experimental: 2.1 Relative Action of Selected Compounds of the Invention Using the Example of Reduction of Damage by Mesosulfuron-Methyl on Summer Barley (HORVS) The seeds of the crop plants to be treated are laid out in sandy loam in plastic pots (diameter ˜4 cm), covered with soil and grown in a greenhouse under good conditions for germination and growth. The trial plants were treated at the early leaf stage (BBCH10-BBCH12). In the course of this, the inventive compounds of the general formula (I) formulated in the form of wettable powders (WP) were sprayed onto the above-ground parts of the plants as an aqueous suspension with a water application rate corresponding to 800 l/ha with addition of wetting agent (e.g. 0.2% Genapol-LRO or 0.2% Mero) in the specified dose. This was followed by the application of the herbicide. For this purpose, mesosulfuron-methyl, formulated in the form of water-dispersible granules (WG), was sprayed onto the above-ground parts of the plants in the form of an aqueous dispersion with a water application rate corresponding to 800 l/ha with addition of wetting agent (e.g. 0.2% Genapol-LRO or 1 l/ha Biopower) in a dose of 40-60 g/ha. […] 9-13 days after application, the efficacy of the test compounds was assessed visually. […]

COC(=O)COc1nc(-c2ccc(F)cc2F)n(-c2ccc(F)cn2)n1 [I.40-11, Methyl {[5-(2,4-difluorophenyl)-1-(5-fluoropyridin-2-yl)-1H-1,2,4-triazol-3-yl]oxy}acetate]
Efficacy of the safener (efficacy code): 2
